From patent US8501446B2 (Vertex Pharmaceuticals Incorporated, priority 2004, dated 2013)

Key:
Assay type in all cases: biochemical
JAK3 = target: T1, JAK3 (Homo sapiens, UniProt P52333); assay: JAK3 inhibition assay (standard radioactive enzyme assay); conditions: average Ki if more than one value determined
T1 sequence (P52333 1-1124): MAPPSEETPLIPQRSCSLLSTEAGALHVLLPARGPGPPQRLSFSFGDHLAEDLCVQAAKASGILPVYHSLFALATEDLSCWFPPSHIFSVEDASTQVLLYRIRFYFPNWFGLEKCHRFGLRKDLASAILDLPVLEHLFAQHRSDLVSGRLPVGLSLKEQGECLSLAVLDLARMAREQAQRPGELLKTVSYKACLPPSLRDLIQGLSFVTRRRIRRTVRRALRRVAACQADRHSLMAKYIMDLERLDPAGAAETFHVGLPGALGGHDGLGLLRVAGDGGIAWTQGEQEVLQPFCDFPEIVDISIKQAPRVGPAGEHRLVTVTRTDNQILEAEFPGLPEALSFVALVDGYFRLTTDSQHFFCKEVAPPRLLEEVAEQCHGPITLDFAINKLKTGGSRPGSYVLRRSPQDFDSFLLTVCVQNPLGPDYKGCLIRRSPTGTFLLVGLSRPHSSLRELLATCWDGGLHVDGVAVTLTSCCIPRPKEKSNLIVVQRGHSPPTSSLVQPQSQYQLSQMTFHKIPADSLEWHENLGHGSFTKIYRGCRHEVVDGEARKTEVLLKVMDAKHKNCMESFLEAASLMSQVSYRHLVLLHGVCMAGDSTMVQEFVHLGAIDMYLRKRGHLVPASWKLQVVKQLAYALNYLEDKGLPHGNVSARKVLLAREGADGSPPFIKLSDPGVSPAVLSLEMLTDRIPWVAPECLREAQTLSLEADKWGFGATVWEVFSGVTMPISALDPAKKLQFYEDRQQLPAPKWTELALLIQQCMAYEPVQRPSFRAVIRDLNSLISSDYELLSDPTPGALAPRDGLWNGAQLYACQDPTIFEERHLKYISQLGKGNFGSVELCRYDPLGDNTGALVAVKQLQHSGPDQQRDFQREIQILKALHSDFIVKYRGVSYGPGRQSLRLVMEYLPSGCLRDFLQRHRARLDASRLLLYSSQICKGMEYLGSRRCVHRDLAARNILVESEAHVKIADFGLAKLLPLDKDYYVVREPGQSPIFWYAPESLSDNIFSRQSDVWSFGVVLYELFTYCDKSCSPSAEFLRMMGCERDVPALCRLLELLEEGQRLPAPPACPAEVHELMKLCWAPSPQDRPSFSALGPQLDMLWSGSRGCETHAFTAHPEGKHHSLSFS
Experimental: (§1) Compounds were screened for their ability to inhibit JAK3 using a standard radioactive enzyme assay. 1.5 μL/well of a DMSO stock containing serial dilutions of a compound of the present invention (concentrations ranging from 667 μM to 46 nM) was placed in a 96 well polycarbonate plate. 50 μL per well of kinase buffer (100 mM HEPES (pH 7.4), 10 mM MgCl2, 25 mM NaCl, 1 mM DTT, and 0.01% bovine serum albumin (BSA)) containing 2 μM poly(Glu)4Tyr and 10 μM ATP was also added to the plate. To initiate the reaction, 50 μL kinase buffer containing 2 nM JAK3 enzyme was added. Final ATP concentration was 5 μM [γ-^33P] ATP (200 μCi ^33P ATP/μmol ATP (Perkin Elmer, Cambridge, Mass.). After 20 minutes at room temperature (25° C.), the reaction was stopped by adding 50 μL 20% trichloroacetic acid (TCA)/0.4 mM ATP to each well. The entire content of each well was then transferred to a 96 well glass fiber filter plate using a TomTek Cell Harvester. After washing, 60 μL scintillation fluid was added and ^33P incorporation detected using a Perkin Elmer TopCount. After removing mean background values for all of the data points the data was fit using Prism software to obtain a Ki(app). Inhibition of JAK2 was measured as above except that final poly(Glu)4Tyr concentration was 15 μM and final ATP concentration was 12 μM.

JAK2 = JAK2 (Homo sapiens, UniProt O60674); assay: JAK2 inhibition assay (radioactive enzyme assay, as for JAK3); conditions: average Ki if more than one value determined
Experimental: as §1

ROCK I (AA 6-553) = target: T2, ROCK I (AA 6-553) (Homo sapiens, UniProt Q13464); assay: ROCK inhibition assay, standard coupled enzyme system ("Enzyme"); conditions: enzyme-linked assay
T2 construct: ROCK I (AA 6-553)
In short: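 ROCK I (AA 6-553) at 45 nM and 30 °C with 45 μM ATP and 200 μM peptide, in 100 mM HEPES pH 7.5, 10 mM MgCl2, 25 mM NaCl, 2 mM DTT, 1.5% DMSO. ADP output read by a PK/LDH coupled system: 2.5 mM PEP, 350 μM NADH, 30 μg/ml PK, 10 μg/ml LDH.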

T2 sequence (Q13464 6-553, species assumed): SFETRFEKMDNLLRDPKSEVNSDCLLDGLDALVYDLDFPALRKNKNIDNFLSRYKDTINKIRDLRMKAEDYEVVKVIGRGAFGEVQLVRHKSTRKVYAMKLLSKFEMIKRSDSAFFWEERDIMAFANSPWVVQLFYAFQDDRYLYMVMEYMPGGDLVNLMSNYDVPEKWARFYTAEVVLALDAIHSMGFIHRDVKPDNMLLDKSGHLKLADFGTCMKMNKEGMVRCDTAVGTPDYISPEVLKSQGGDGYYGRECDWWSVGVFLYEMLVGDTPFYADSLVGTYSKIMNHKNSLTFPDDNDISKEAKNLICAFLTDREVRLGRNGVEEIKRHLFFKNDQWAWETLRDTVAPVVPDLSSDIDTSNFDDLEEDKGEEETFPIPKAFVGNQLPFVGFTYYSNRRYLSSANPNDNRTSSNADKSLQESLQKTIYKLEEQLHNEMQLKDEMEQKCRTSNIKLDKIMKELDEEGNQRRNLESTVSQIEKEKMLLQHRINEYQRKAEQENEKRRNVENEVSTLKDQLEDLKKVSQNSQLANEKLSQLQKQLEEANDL
Sequence of JAK2 (O60674 whole entry, species assumed): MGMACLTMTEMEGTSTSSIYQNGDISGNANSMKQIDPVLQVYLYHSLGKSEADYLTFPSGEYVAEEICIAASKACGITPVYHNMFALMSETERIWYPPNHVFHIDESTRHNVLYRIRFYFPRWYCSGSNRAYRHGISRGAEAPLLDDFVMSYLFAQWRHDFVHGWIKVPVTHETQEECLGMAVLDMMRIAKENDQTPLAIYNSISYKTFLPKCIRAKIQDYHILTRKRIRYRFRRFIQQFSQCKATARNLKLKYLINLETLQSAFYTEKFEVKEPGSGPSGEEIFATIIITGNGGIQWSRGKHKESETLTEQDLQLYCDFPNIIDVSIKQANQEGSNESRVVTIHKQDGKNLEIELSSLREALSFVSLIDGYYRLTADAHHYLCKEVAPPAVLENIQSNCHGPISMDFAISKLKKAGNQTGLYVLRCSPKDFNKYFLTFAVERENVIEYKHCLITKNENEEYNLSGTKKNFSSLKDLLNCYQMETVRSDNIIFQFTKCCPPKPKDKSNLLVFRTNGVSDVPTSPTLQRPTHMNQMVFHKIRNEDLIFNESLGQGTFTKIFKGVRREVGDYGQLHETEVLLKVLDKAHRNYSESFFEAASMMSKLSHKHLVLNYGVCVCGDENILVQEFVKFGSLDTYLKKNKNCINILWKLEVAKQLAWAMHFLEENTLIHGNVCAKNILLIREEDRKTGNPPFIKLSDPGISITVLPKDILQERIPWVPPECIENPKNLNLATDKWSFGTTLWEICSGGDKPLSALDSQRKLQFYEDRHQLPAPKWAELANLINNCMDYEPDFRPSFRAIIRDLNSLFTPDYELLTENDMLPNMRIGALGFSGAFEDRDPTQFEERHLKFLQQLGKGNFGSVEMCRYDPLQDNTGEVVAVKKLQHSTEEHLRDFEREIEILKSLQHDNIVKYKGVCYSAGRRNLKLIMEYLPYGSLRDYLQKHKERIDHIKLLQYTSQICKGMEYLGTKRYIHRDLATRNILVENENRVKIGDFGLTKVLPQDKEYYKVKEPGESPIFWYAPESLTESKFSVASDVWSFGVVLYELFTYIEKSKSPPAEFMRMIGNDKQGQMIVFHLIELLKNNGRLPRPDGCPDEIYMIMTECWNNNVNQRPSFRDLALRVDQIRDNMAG

CC(=O)N1CCCN(c2cccc(-c3c[nH]c4ncc(C)cc34)n2)CC1 [Compound 40]
Ki (JAK3): < 500 nM
Ki (JAK2): < 500 nM
Ki (ROCK I (AA 6-553)): 500 to 5000 nM

CC(=O)N1[C@H](C)CN(c2cccc(-c3c[nH]c4ncc(C(=O)N5CCOCC5)cc34)n2)C[C@@H]1C [Compound 51]
Ki (JAK3): 500 to 5000 nM
Ki (JAK2): 500 to 5000 nM
Ki (ROCK I (AA 6-553)): 500 to 5000 nM

CC(=O)N1[C@H](C)CN(c2cccc(-c3c[nH]c4ncc(NC(=O)Oc5ccc(C)cc5)cc34)n2)C[C@@H]1C [Compound 61]
Ki (JAK3): < 500 nM
Ki (JAK2): < 500 nM
Ki (ROCK I (AA 6-553)): 500 to 5000 nM

CCCOC(=O)Nc1cnc2[nH]cc(-c3cccc(N4C[C@@H](C)N(C(C)=O)[C@@H](C)C4)n3)c2c1 [Compound 62]
Ki (JAK3): < 500 nM
Ki (JAK2): < 500 nM
Ki (ROCK I (AA 6-553)): < 500 nM

CC(=O)N1[C@H](C)CN(c2cccc(-c3c[nH]c4ncc(NC(=O)OCC(C)C)cc34)n2)C[C@@H]1C [Compound 63]
Ki (JAK3): < 500 nM
Ki (JAK2): < 500 nM
Ki (ROCK I (AA 6-553)): < 500 nM

CC(=O)N1[C@H](C)CN(c2cccc(-c3c[nH]c4ncc(NC(=O)OCC(C)(C)C)cc34)n2)C[C@@H]1C [Compound 64]
Ki (JAK3): < 500 nM
Ki (JAK2): < 500 nM
Ki (ROCK I (AA 6-553)): 500 to 5000 nM

CC(=O)N1[C@H](C)CN(c2cccc(-c3c[nH]c4ncc(NC(=O)OC(C)C)cc34)n2)C[C@@H]1C [Compound 65]
Ki (JAK3): < 500 nM
Ki (JAK2): < 500 nM
Ki (ROCK I (AA 6-553)): 500 to 5000 nM

COc1ccc(OC(=O)Nc2cnc3[nH]cc(-c4cccc(N5C[C@@H](C)N(C(C)=O)[C@@H](C)C5)n4)c3c2)cc1 [Compound 71]
Ki (JAK3): < 500 nM
Ki (JAK2): < 500 nM
Ki (ROCK I (AA 6-553)): 500 to 5000 nM

CCOC(=O)c1cnc2[nH]cc(-c3cccc(N4C[C@@H](C)N(C(C)=O)[C@@H](C)C4)n3)c2c1 [Compound 73]
Ki (JAK3): < 500 nM
Ki (JAK2): < 500 nM
Ki (ROCK I (AA 6-553)): < 500 nM

CC(=O)N1[C@H](C)CN(c2cccc(-c3c[nH]c4ncc(C(=O)OCC(C)C)cc34)n2)C[C@@H]1C [Compound 74]
Ki (JAK3): < 500 nM
Ki (JAK2): < 500 nM
Ki (ROCK I (AA 6-553)): < 500 nM

CC(=O)N1[C@H](C)CN(c2cccc(-c3c[nH]c4ncc(O)cc34)n2)C[C@@H]1C [Compound 77]
Ki (JAK3): < 500 nM
Ki (JAK2): < 500 nM
Ki (ROCK I (AA 6-553)): 500 to 5000 nM

CN1C2CCC1CN(c1cccc(-c3c[nH]c4ncc(Cl)cc34)n1)CC2 (stereo not drawn) [Compound 82]
Ki (JAK3): < 500 nM
Ki (JAK2): < 500 nM
Ki (ROCK I (AA 6-553)): < 500 nM

COC(=O)N1CCCN(c2cccc(-c3c[nH]c4ncc(Cl)cc34)n2)CC1 [Compound 83]
Ki (JAK3): < 500 nM
Ki (JAK2): < 500 nM
Ki (ROCK I (AA 6-553)): 500 to 5000 nM

CCOC(=O)N1CCCN(c2cccc(-c3c[nH]c4ncc(Cl)cc34)n2)CC1 [Compound 84]
Ki (JAK3): < 500 nM
Ki (JAK2): < 500 nM
Ki (ROCK I (AA 6-553)): 500 to 5000 nM

CCC(=O)N1CCN(c2cccc(-c3c[nH]c4ncc(Cl)cc34)n2)CC1 [Compound 85]
Ki (JAK3): < 500 nM
Ki (JAK2): < 500 nM
Ki (ROCK I (AA 6-553)): 500 to 5000 nM

CCCC(=O)N1CCN(c2cccc(-c3c[nH]c4ncc(Cl)cc34)n2)CC1 [Compound 86]
Ki (JAK3): < 500 nM
Ki (JAK2): < 500 nM
Ki (ROCK I (AA 6-553)): 500 to 5000 nM

COC(=O)Nc1cccc(-c2c[nH]c3ncc(Cl)cc23)n1 [Compound 87]
Ki (JAK3): < 500 nM
Ki (JAK2): < 500 nM
Ki (ROCK I (AA 6-553)): 500 to 5000 nM

CCCOC(=O)Nc1cccc(-c2c[nH]c3ncc(Cl)cc23)n1 [Compound 88]
Ki (JAK3): < 500 nM
Ki (JAK2): < 500 nM
Ki (ROCK I (AA 6-553)): 500 to 5000 nM

CC(C)CC(=O)N1CCN(c2cccc(-c3c[nH]c4ncc(Cl)cc34)n2)CC1 [Compound 89]
Ki (JAK3): < 500 nM
Ki (JAK2): < 500 nM
Ki (ROCK I (AA 6-553)): 500 to 5000 nM

CC(C)COC(=O)Nc1cccc(-c2c[nH]c3ncc(Cl)cc23)n1 [Compound 90]
Ki (JAK3): < 500 nM
Ki (JAK2): < 500 nM
Ki (ROCK I (AA 6-553)): 500 to 5000 nM
